In assay [1] the target is Gamma-secretase. Put plainly: Modulation of gamma-secretase (unknown origin) assessed as inhibition of amyloid beta 40 production. It counts as protein-complex assay, Homo sapiens.
Assay [2] deals with Gamma-secretase. Nature of the assay: Modulation of gamma-secretase (unknown origin) assessed as inhibition of amyloid beta 42 production. It counts as protein-complex assay, Homo sapiens.
The target in assay [3] is Gamma-secretase. Put plainly: Modulation of gamma-secretase (unknown origin) expressed in CHO cells assessed as inhibition of amyloid beta 40 production. It counts as cell-based, Homo sapiens.
Assay [4] has as its target Gamma-secretase. Put plainly: Modulation of gamma-secretase (unknown origin) expressed in CHO cells assessed as inhibition of amyloid beta 42 production. The format is cell-based, Homo sapiens.
Assay [5] has as its target T1, Gamma-secretase (Homo sapiens) (UniProt Q96BI3+Q9NZ42+Q8WW43+P49768+Q92542+P49810). Put plainly: Selectivity ratio of IC50 for modulation of gamma-secretase (unknown origin) assessed as inhibition of amyloid beta 40 production to IC50 for modulation of gamma-secretase (unknown origin) assessed as inhibition of amyloid beta 42 production. It counts as protein-complex assay.

Assay [6] concerns the target T1, Gamma-secretase (Homo sapiens). Nature of the assay: Modulation of gamma-secretase (unknown origin) assessed as inhibition of amyloid beta 40 production at 4 uM relative to control. The format is protein-complex assay.

The IC50 is the point on the concentration scale where inhibition reaches its midpoint. In general, inhibition refers to the share of the control response that was lost under treatment.

Consider `CC(=O)O[C@@H]([C@@H]1C[C@@H](C)C2=C(O1)[C@H](O)[C@@]1(C)[C@@H]3CC[C@H]4C(C)(C)[C@@H](O[C@@H]5OC[C@@H](O)[C@H](O)[C@H]5O)CC[C@@]45C[C@@]35CC[C@]21C)C(C)(C)O`, for which the IC50 amounted to 2700 nM at Gamma-secretase [1], 100 nM at Gamma-secretase [2], 6300 nM at Gamma-secretase [3] and 100 nM at Gamma-secretase [4].

For the molecule `CC(=O)O[C@@H]([C@@H]1C[C@@H](C)[C@H]2[C@H](O1)[C@H](O)[C@@]1(C)[C@@H]3CC[C@H]4C(C)(C)[C@@H](OC(=O)NCCN(C)C)CC[C@@]45C[C@@]35CC[C@]21C)C(C)(C)O`, the Ratio IC50 in assay [5] is above 11. Besides, the inhibition in assay [6] came to 23%. Also, on Gamma-secretase [2], the IC50 came out at 360 nM.

The values are drawn from ChEMBL document CHEMBL3217610, “SAR investigations on a novel class of gamma-secretase modulators based on a unique scaffold” (Medchemcomm, 2013).
